Activity calls are given as the source filed them. The calls are words filed in the database; no cut-off is given here.
Tests used:
[1] = molecular target: T1, N-formyl peptide receptor 2 (Homo sapiens) (UniProt P25090); assay: (§1) Antagonist activity at FPR2 in human peripheral blood polymorphonuclear neutrophils assessed as inhibition of WKYMVM-peptide induced ROS production preincubated for 5 mins followed WKYMVM-peptide stimulation by isoluminol/HRP-based chemiluminescence assay
T1 sequence (whole entry): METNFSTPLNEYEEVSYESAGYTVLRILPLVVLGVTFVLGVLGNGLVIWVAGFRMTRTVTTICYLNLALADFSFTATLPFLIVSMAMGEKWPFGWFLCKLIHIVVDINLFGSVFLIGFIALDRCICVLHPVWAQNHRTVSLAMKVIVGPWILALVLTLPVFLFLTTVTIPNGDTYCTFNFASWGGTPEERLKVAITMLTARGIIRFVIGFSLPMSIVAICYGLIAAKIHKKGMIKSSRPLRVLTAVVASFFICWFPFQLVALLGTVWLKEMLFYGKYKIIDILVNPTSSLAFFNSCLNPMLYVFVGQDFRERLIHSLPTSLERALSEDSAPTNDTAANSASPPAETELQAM

[2] = molecular target: T2, fMet-Leu-Phe receptor (Homo sapiens) (UniProt P21462); assay: Antagonist activity at FPR1 in human peripheral blood polymorphonuclear neutrophils assessed as inhibition of fMLF-induced ROS production at >= 500 nM preincubated for 5 mins followed fMLF stimulation by isoluminol/HRP-based chemiluminescence assay
T2 sequence (whole entry): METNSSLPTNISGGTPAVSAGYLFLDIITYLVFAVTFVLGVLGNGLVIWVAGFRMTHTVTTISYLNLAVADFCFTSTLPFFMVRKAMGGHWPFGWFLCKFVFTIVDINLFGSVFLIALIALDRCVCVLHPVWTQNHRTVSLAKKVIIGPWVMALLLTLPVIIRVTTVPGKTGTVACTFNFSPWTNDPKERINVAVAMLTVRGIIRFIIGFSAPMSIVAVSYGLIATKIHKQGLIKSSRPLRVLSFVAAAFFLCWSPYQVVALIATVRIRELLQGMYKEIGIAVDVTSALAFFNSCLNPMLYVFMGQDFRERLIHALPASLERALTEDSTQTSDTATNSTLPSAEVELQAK

[3] = molecular target: T3, N-formyl peptide receptor 2 (Homo sapiens, UniProt P25090); assay: as §1
T3 sequence (P25090 whole entry): T1 sequence (whole entry)

Neutrophil = assay: Inhibition of PMA-induced superoxide production in human peripheral blood polymorphonuclear neutrophils at 500 nM preincubated for 5 mins followed PMA stimulation by isoluminol/HRP-based chemiluminescence assay; type: functional, cell-based
[4] = molecular target: T2, fMet-Leu-Phe receptor (Homo sapiens); assay: Antagonist activity at FPR1 in human peripheral blood polymorphonuclear neutrophils assessed as inhibition of fMLF-induced ROS production at <500 nM preincubated for 5 mins followed fMLF stimulation by isoluminol/HRP-based chemiluminescence assay
[5] = molecular target: T2, fMet-Leu-Phe receptor (Homo sapiens); assay: (§2) Antagonist activity at FPR1 in human peripheral blood polymorphonuclear neutrophils assessed as inhibition of fMIFL-induced ROS production at 500 nM preincubated for 5 mins followed fMIFL stimulation by isoluminol/HRP-based chemiluminescence assay
[6] = molecular target: T2, fMet-Leu-Phe receptor (Homo sapiens); assay: Antagonist activity at FPR1 in human peripheral blood polymorphonuclear neutrophils assessed as inhibition of fMLF-induced ROS production at 500 nM preincubated for 5 mins followed fMIFL stimulation by isoluminol/HRP-based chemiluminescence assay
[7] = molecular target: T2, fMet-Leu-Phe receptor (Homo sapiens); assay: as §2, with “N-(4-chlorophenyl)-N'-(5-isopropyl-1-methyl-3-oxo-2-phenyl-2,3-dihydro-1H-pyrazol-4-yl)urea-induced” for “fMIFL-induced”, “N-(4-chlorophenyl)-N'-(5-isopropyl-1-methyl-3-oxo-2-phenyl-2,3-dihydro-1H-pyrazol-4-yl)urea” for “fMIFL”
[8] = molecular target: T1, N-formyl peptide receptor 2 (Homo sapiens); conditions: 100 nM
Description: Antagonist activity at FPR2 in human peripheral blood polymorphonuclear neutrophils assessed as inhibition of WKYMVM-induced ROS production at 100 nM preincubated for 5 mins followed Lau-Aoc-(Lys-betaNphe)6-NH2 stimulation by isoluminol/HRP-based chemiluminescence assay

[9] = molecular target: T1, N-formyl peptide receptor 2 (Homo sapiens); conditions: 100 nM; remark: listed apart in the source
Description: Antagonist activity at FPR2 in human peripheral blood polymorphonuclear neutrophils assessed as inhibition of PSMalpha2-peptide induced ROS production at 100 nM preincubated for 5 mins followed PSMalpha2-peptide stimulation by isoluminol/HRP-based chemiluminescence assay

[10] = molecular target: T1, N-formyl peptide receptor 2 (Homo sapiens); conditions: 100 nM; remark: listed apart in the source
Description: Antagonist activity at FPR2 in human peripheral blood polymorphonuclear neutrophils assessed as inhibition of F2Pal10-induced ROS production at 100 nM preincubated for 5 mins followed F2Pal10 stimulation by isoluminol/HRP-based chemiluminescence assay

[11] = molecular target: T1, N-formyl peptide receptor 2 (Homo sapiens); conditions: 100 nM; remark: listed apart in the source
Description: Antagonist activity at FPR2 in human peripheral blood polymorphonuclear neutrophils assessed as inhibition of Lau-Aoc-(Lys-betaNphe)6-NH2-induced ROS production at 100 nM preincubated for 5 mins followed Lau-Aoc-(Lys-betaNphe)6-NH2 stimulation by isoluminol/HRP-based chemiluminescence assay

[12] = molecular target: T1, N-formyl peptide receptor 2 (Homo sapiens); conditions: 100 nM; remark: listed apart in the source
Description: Displacement of Cy5-WKYMVM from FPR2 in human peripheral blood polymorphonuclear neutrophils at 100 nM preincubated for 10 mins followed by Cy5-WKYMVM addition measured after 60 mins by fluorescence based assay

Row | Compound | inhibition [1] | inhibition [2] | IC50 [3] | inhibition (Neutrophil) | inhibition [4] | inhibition [5] | inhibition [6] | inhibition [7] | inhibition [8] | inhibition [9] | inhibition [10] | inhibition [11] | inhibition [12]
1 | CCN(CC)c1ccc2c(-c3ccccc3C(=O)N[C@@H](CCC(N)=O)C(=O)N[C@@H](CCCNC(=N)N)C(=O)N[C@@H](CC(C)C)C(=O)N[C@@H](Cc3ccccc3)C(=O)N[C@@H](CCC(N)=O)C(=O)N[C@@H](C(=O)N[C@@H](CCCCN)C(=O)NCC(=O)N[C@@H](CCCNC(=N)N)C(=O)N[C@@H](CCCNC(=N)N)C(N)=O)C(C)C)c3ccc(=[N+](CC)CC)cc-3oc2c1 | Active | – | – | – | – | – | – | – | – | – | – | – | –
2 | CCN(CC)c1ccc2c(-c3ccccc3C(=O)N[C@@H](CCCCN)C(=O)N(CCC(=O)N[C@@H](CCCCN)C(=O)N(CCC(=O)N[C@@H](CCCCN)C(=O)N(CCC(=O)N[C@@H](CCCCN)C(=O)N(CCC(=O)N[C@@H](CCCCN)C(=O)N(CCC(=O)N[C@@H](CCCCN)C(=O)N(CCC(N)=O)Cc3ccc(C(F)(F)F)cc3)Cc3ccc(C(F)(F)F)cc3)Cc3ccc(C(F)(F)F)cc3)Cc3ccc(C(F)(F)F)cc3)Cc3ccc(C(F)(F)F)cc3)Cc3ccc(C(F)(F)F)cc3)c3ccc(=[N+](CC)CC)cc-3oc2c1 | – | Active | 94 nM | Active | – | – | – | – | – | – | – | – | –
3 | CCN(CC)c1ccc2c(-c3ccccc3C(=O)N[C@@H](CCCCN)C(=O)N(CCC(=O)N[C@@H](CCCCN)C(=O)N(CCC(=O)N[C@@H](CCCCN)C(=O)N(CCC(=O)N[C@@H](CCCCN)C(=O)N(CCC(=O)N[C@@H](CCCCN)C(=O)N(CCC(=O)N[C@@H](CCCCN)C(=O)N(CCC(N)=O)Cc3ccccc3)Cc3ccccc3)Cc3ccccc3)Cc3ccccc3)Cc3ccccc3)Cc3ccccc3)c3ccc(=[N+](CC)CC)cc-3oc2c1 | – | – | 15 nM | – | inactive | inactive | inactive | inactive | Active | Active | Active | Active | Active
